Test results reported in patent US20020197244A1, “Compositions and methods for regulating phagocytosis and ICAM-1 expression” (priority 1998, published 2002).

Columns and labels:
Assay type in all cases: cell-based
[1] = test system: Human PMN cells; assay: PMN chemotactic migration towards FMLP, Boyden chamber
Method: Since ICAM-1 is involved in cell migration, cell migration towards a chemotactic peptide was studied in cells treated with Compound I and STI. Human PMN cells were placed in one side of a Boyden chamber, using standard techniques, and a chemotactic peptide (FMLP) was placed in the other chamber. Cells were allowed to migrate into the second chamber, and the number of migrating cells per field and distance of migration were calculated. The experiment was repeated with PMN cells pretreated with one of the following: 5 or 0.5 mg/ml STI, 1 or 0.1 μM Compound I, a buffer vehicle, and with and without chemotactic peptide. The number of cells per field that migrated the same distance as the untreated control was measured. Without the peptide and with no treatment, an average of 19 cells/field were migrating a distance of 80 microns. […] In other words, no cells (or less than 5/field) were identified at 115 microns. […] The ability to inhibit PMN migration is an important constituent of anti-inflammatory compounds.

[2] = test system: melanocyte cultures plated under epidermal equivalents (EpiDerm); assay: Pigmentation in equivalent-monolayer co-culture (no K-M contact); conditions: no keratinocyte-melanocyte contact
Method: (§1) Since PAR-2 is expressed in keratinocytes, but not in melanocytes, the possible requirement of keratinocyte-melanocyte contact was tested for the effect of Compound I and SLIGRL on melanosome phagocytosis by the keratinocytes. Primary melanocyte cultures (commercially available from Clonetics, San Diego) were plated under epidermal equivalents (EpiDerm, of MatTek, Ashland, Mass.) to create an equivalent-monolayer co-culture with no contact between keratinocytes and melanocytes. These co-cultures were compared to MelanoDerm equivalents (of MatTek), where melanocytes are present in the basal layer of the equivalent. Cultures were treated with Compound I, with the […], and with the PAR-2 agonist SLIGRL. As set forth in Table 3, keratinocytes are indicated by “K”, melanocytes are indicated by “M”, and lack of keratinocyte-melanocyte contact is indicated as “no K-M cont”. […] The same result was also observed with monolayer keratinocyte/melanocyte co-cultures having keratinocyte/melanocyte contact.

[3] = test system: monolayer keratinocyte/melanocyte co-cultures; assay: Pigmentation in monolayer keratinocyte/melanocyte co-cultures (K-M contact); conditions: keratinocyte-melanocyte contact
Method: as §1

[4] = test system: MelanoDerm equivalents; assay: Pigmentation in melanocyte-containing epidermal equivalents; conditions: keratinocyte-melanocyte contact
Method: as §1

| Substance | Migration (distance) ([1]; buffer without peptide: 80 μ) [μ] | Cells/Field ([1]; cells counted at 115 microns, PMN pretreated with 5 or 0.5 mg/ml STI or 1 or 0.1 μM Compound I, buffer without FMLP: 19 at 80 μ) [cells/field] | level of pigmentation, Equivalent Monolayer Co-culture (no K-M cont.) [2] | level of pigmentation, Mono-Layer Co-Cultures (K-M cont.) [3] | level of pigmentation, Epidermal Equivalents (K-M cont.) [4] |
| --- | --- | --- | --- | --- | --- |
| FMLP [reference compound] | 115 | 41 | – | – | – |
| TFLLRNPNDK [printed as PAR-2 agonist] | – | – | no effect | no effect | no effect |
